Experimental data taken from patent US12139474B2, “LPA receptor antagonists and uses thereof” (Gilead Sciences, Inc., priority 2020, dated 2024).

Molecular target: T1, human LPAR1 (Homo sapiens, UniProt Q92633)
T1 construct: host or cells: CHO-K1
Assay: LPAR1 intracellular calcium mobilization assay (antagonist mode)
Format: cell-based
Settings: CHO-K1 EDG2 cells expressing human LPAR1; 60 min pre-incubation with compound, then LPA 18:2 at EC80 (100 nM); FLIPR calcium signal
Method: In vitro LPAR1 activity was measured in an intracellular calcium mobilization assay.
CHO-K1 EDG2 cells (DiscoverX cat #93-0644C2) expressing human LPAR1 (NM_001401.3) were seeded in a total volume of 25 μL of Dulbecco's Modification of Eagle's Medium (DMEM) with 10% Fetal Bovine Serum, 1× PenStrepGlutamine, 300 ug/ml Hygromycin, and 800 ug/ml G418 into 384-well tissue culture plate (Grenier #781091) at 15,000 cells/well and incubated at 37° C. overnight. Prior to testing, 25 μL Calcium Loading Dye Component A (FLIPR Calcium 6 Assay Kit Molecular Device #R8190) and 2.5 mM Probenecid (Invitrogen #P36400, prepared fresh) in Hank's Balanced Salt Solution (Corning #21-023-CV), 20 mM HEPES (Corning #25-060-CI), 0.1% Bovine Serum Albumin (Sigma-Aldrich #A7906-500G) was add to the cells for 60 minutes at 37° C.
Agonist dose curves of LPA 18:2 (Avanti Polar Lipids cat #857138, 0.5 nM to 10 μM) were recorded to determine the LPA 18:2 EC80 for subsequent antagonist assays. For agonist dose curves, cells were removed from the incubator 2 hours after dye loading and transferred to the FLIPR Tetra instrument (Molecular Devices, San Jose, CA). Calcium mobilization was monitored for 5 min and 10 μL 6× LPA in HBSS/20 mM Hepes/0.1% bovine serum albumin (BSA) was added to the cells 5 seconds into the assay.
To determine the LPAR1 antagonist activity of test compounds, cells were pre-incubated with test compound at a dose range of 0.5 nM to 10 μM, followed by LPA at EC80 concentration (100 nM). After dye loading, cells were removed from the incubator and 0.3 μL of 200× antagonist was added. Cells were incubated for 60 minutes at 37° C. Antagonist activity was measured on a FLIPR Tetra. Calcium mobilization was monitored for 3.5 minutes and 10 μL 6× EC80 LPA in HBSS, 20 mM HEPES, and 0.1% BSA was added to the cells 5 seconds into the assay. Signal amplitude (Maximum minus minimum) values were plotted against log10 of antagonist concentration using Dose Response Tool (Gilead Sciences Inc.) to determine EC50.
To assess the antagonistic potential of exemplified compounds EC50 values were determined for Compounds 1 to 32 in the LPAR1 calcium mobilization assay. The compound numbers correspond to the compound numbers in Examples 1 to 33.

T1 sequence (Q92633 whole entry): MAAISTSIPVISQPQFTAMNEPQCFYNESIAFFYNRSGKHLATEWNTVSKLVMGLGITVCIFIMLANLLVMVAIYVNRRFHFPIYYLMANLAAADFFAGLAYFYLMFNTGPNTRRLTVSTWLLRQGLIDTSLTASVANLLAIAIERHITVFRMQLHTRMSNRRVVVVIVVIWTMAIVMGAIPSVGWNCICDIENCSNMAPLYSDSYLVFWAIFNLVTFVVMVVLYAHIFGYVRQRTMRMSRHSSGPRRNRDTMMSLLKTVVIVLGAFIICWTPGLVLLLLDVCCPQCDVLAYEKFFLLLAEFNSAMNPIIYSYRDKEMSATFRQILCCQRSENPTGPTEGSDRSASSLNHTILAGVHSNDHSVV

Row | EC50 | SMILES
1 | 135 nM | C[C@@H](OC(=O)Nc1c(-c2ccc3c(n2)OC(c2ccccc2)C(=O)N3)nnn1C)c1cccnc1Cl (stereo partly drawn) [Compound 27, (R)-1-(2-chloropyridin-3-yl)ethyl (1-methyl-4-(2-oxo-3-phenyl-2,3-dihydro-1H-pyrido[2,3-b][1,4]oxazin-6-yl)-1H-1,2,3-triazol-5-yl)carbamate]
2 | 3780 nM | CC1Oc2nc(-c3nnn(C)c3NC(=O)O[C@H](C)c3cc(F)cnc3F)ccc2NC1=O (stereo partly drawn) [Compound 32, (R)-1-(2,5-difluoropyridin-3-yl)ethyl (1-methyl-4-(3-methyl-2-oxo-2,3-dihydro-1H-pyrido[2,3-b][1,4]oxazin-6-yl)-1H-1,2,3-triazol-5-yl)carbamate]
3 | 123 nM | C[C@@H](OC(=O)Nc1c(-c2ccc3c(n2)OCC(=O)N3)nnn1C)c1cccnc1Cl [Compound 24, (R)-1-(2-chloropyridin-3-yl)ethyl (1-methyl-4-(2-oxo-2,3-dihydro-1H-pyrido[2,3-b][1,4]oxazin-6-yl)-1H-1,2,3-triazol-5-yl)carbamate]
4 | 1980 nM | CC(OC(=O)Nc1c(-c2ccc3c(n2)OCC(=O)N3)nnn1C)c1cc(F)ncc1F (stereo not shown) [Compound 2, 1-(2,5-difluoropyridin-4-yl)ethyl(1-methyl-4-(2-oxo-2,3-dihydro-1H-pyrido[2,3-b][1,4]-oxazin-6-yl)-1H-1,2,3-triazol-5-yl)carbamate]
5 | 118 nM | C[C@@H](OC(=O)Nc1c(-c2ccc3c(n2)OCC(=O)N3)nnn1C)c1cc(Cl)cnc1F [Compound 4, (R)-1-(5-chloro-2-fluoropyridin-3-yl)-ethyl(1-methyl-4-(2-oxo-2,3-dihydro-1H-pyrido[2,3-b][1,4]-oxazin-6-yl)-1H-1,2,3-triazol-5-yl)-carbamate]
6 | 265 nM | C[C@@H](OC(=O)Nc1c(-c2ccc3c(c2)N(C)CC(=O)N3)nnn1C)c1ccccc1Cl [Compound 19, (R)-1-(2-chlorophenyl)ethyl (1-methyl-4-(4-methyl-2-oxo-1,2,3,4-tetrahydroquinoxalin-6-yl)-1H-1,2,3-triazol-5-yl)carbamate]
7 | < 5 nM | CC1Oc2nc(-c3nnn(C)c3NC(=O)O[C@H](C)c3cc(F)cnc3Cl)ccc2NC1=O (stereo partly drawn) [Compound 31, (R)-1-(2-chloro-5-fluoropyridin-3-yl)ethyl (1-methyl-4-(3-methyl-2-oxo-2,3-dihydro-1H-pyrido[2,3-b][1,4]oxazin-6-yl)-1H-1,2,3-triazol-5-yl)carbamate]
8 | < 5 nM | C[C@@H](OC(=O)Nc1c(-c2ccc3c(n2)OC(C(F)(F)F)C(=O)N3)nnn1C)c1cc(F)cnc1Cl (stereo partly drawn) [Compound 30, (R)-1-(2-chloro-5-fluoropyridin-3-yl)ethyl (1-methyl-4-(2-oxo-3-(trifluoromethyl)-2,3-dihydro-1H-pyrido[2,3-b][1,4]oxazin-6-yl)-1H-1,2,3-triazol-5-yl)carbamate]
9 | 2280 nM | C[C@@H](OC(=O)Nc1c(-c2ccc3c(n2)OC(C)(C)C(=O)N3)nnn1C)c1cccnc1Cl [Compound 21, (R)-1-(2-chloropyridin-3-yl)ethyl (4-(3,3-dimethyl-2-oxo-2,3-dihydro-1H-pyrido[2,3-b][1,4]oxazin-6-yl)-1-methyl-1H-1,2,3-triazol-5-yl)carbamate]
10 | 46 nM | C[C@@H](OC(=O)Nc1c(-c2ccc3c(c2)CCC(=O)N3)nnn1C)c1ccccc1Cl [Compound 11, (R)-1-(2-chlorophenyl)ethyl (1-methyl-4-(2-oxo-1,2,3,4-tetrahydroquinolin-6-yl)-1H-1,2,3-triazol-5-yl)carbamate]
11 | 100 nM | Cn1nnc(-c2ccc3c(n2)OCC(=O)N3)c1NC(=O)O[C@H](CF)c1ccccc1 [Compound 5, (S)-2-fluoro-1-phenylethyl (1-methyl-4-(2-oxo-2,3-dihydro-1H-pyrido[2,3-b][1,4]-oxazin-6-yl)-1H-1,2,3-triazol-5-yl)-carbamate]
12 | 565 nM | C[C@@H](OC(=O)Nc1c(-c2ccc3[nH]c(=O)ccc3c2)nnn1C)c1ccccc1Cl [Compound 15, (R)-1-(2-chlorophenyl)ethyl(1-methyl-4-(2-oxo-1,2-dihydroquinolin-6-yl)-1H-1,2,3-triazol-5-yl)carbamate]
13 | 390 nM | C[C@@H](OC(=O)Nc1c(-c2ccc3c(c2)CCC(=O)N3)nnn1C)c1cccnc1Cl [Compound 17, (R)-1-(2-chloropyridin-3-yl)ethyl (1-methyl-4-(2-oxo-1,2,3,4-tetrahydroquinolin-6-yl)-1H-1,2,3-triazol-5-yl)-carbamate]
14 | 265 nM | C[C@@H](OC(=O)Nc1c(-c2ccc3c(c2)OCC(=O)N3)nnn1C)c1cccnc1Cl [Compound 18, (R)-1-(2-chloropyridin-3-yl)ethyl (1-methyl-4-(3-oxo-3,4-dihydro-2H-benzo[b][1,4]-oxazin-7-yl)-1H-1,2,3-triazol-5-yl)-carbamate]
15 | 66 nM | C[C@@H](OC(=O)Nc1c(-c2ccc3c(n2)OCC(=O)N3)nnn1C)c1cc(F)cnc1F [Compound 3, (R)-1-(2,5-difluoropyridin-3-yl)ethyl(1-methyl-4-(2-oxo-2,3-dihydro-1H-pyrido-[2,3-b][1,4]oxazin-6-yl)-1H-1,2,3-triazol-5-yl)carbamate]
16 | 140 nM | C[C@@H](OC(=O)Nc1c(-c2ccc3c(n2)COC(=O)N3)nnn1C)c1cccnc1Cl [Compound 25, [(1R)-1-(2-chloro-3-pyridyl)ethyl] N-[3-methyl-5-(2-oxo-1,4-dihydropyrido[3,2-d][1,3]oxazin-6-yl)triazol-4-yl]carbamate]
17 | 5 nM | C[C@@H](OC(=O)Nc1c(-c2cc(F)c3c(c2)CCC(=O)N3)nnn1C)c1cccnc1Cl [Compound 29, (R)-1-(2-chloropyridin-3-yl)ethyl (4-(8-fluoro-2-oxo-1,2,3,4-tetrahydroquinolin-6-yl)-1-methyl-1H-1,2,3-triazol-5-yl)carbamate]
18 | 118 nM | C[C@@H](OC(=O)Nc1c(-c2ccc3c(c2)CCC(=O)N3)nnn1C)c1cc(F)cnc1Cl [Compound 20, (R)-1-(2-chloro-5-fluoropyridin-3-yl)ethyl (1-methyl-4-(2-oxo-1,2,3,4-tetrahydroquinolin-6-yl)-1H-1,2,3-triazol-5-yl)carbamate]
19 | 660 nM | C[C@@H](OC(=O)Nc1c(-c2nc3c(cc2F)NC(=O)CO3)nnn1C)c1cccnc1Cl [Compound 28, (R)-1-(2-chloropyridin-3-yl)ethyl (4-(7-fluoro-2-oxo-2,3-dihydro-1H-pyrido[2,3-b][1,4]oxazin-6-yl)-1-methyl-1H-1,2,3-triazol-5-yl)carbamate]
20 | 218 nM | C[C@@H](OC(=O)Nc1c(-c2ccc3c(c2)COC(=O)N3)nnn1C)c1ccccc1Cl [Compound 12, (R)-1-(2-chlorophenyl)ethyl(1-methyl-4-(2-oxo-1,4-dihydro-2H-benzo[d][1,3]-oxazin-6-yl)-1H-1,2,3-triazol-5-yl)-carbamate]
21 | 1230 nM | C[C@@H](OC(=O)Nc1c(-c2ccc3c(c2F)CCC(=O)N3)nnn1C)c1cccnc1Cl [Compound 7, (R)-1-(2-chloropyridin-3-yl)ethyl (4-(5-fluoro-2-oxo-1,2,3,4-tetrahydroquinolin-6-yl)-1-methyl-1H-1,2,3-triazol-5-yl)carbamate]
22 | 86 nM | CC1Oc2nc(-c3nnn(C)c3NC(=O)O[C@H](C)c3cccnc3Cl)ccc2NC1=O (stereo partly drawn) [Compound 22, (R)-1-(2-chloropyridin-3-yl)ethyl (1-methyl-4-(3-methyl-2-oxo-2,3-dihydro-1H-pyrido[2,3-b][1,4]oxazin-6-yl)-1H-1,2,3-triazol-5-yl)carbamate]
23 | 38 nM | C[C@@H](OC(=O)Nc1c(-c2ccc3c(c2)OCC(=O)N3)nnn1C)c1ccccc1Cl [Compound 13, (R)-1-(2-chlorophenyl)ethyl(1-methyl-4-(3-oxo-3,4-dihydro-2H-benzo[b][1,4]-oxazin-7-yl)-1H-1,2,3-triazol-5-yl)-carbamate]
24 | 3780 nM | CCC1Oc2nc(-c3nnn(C)c3NC(=O)O[C@H](C)c3cccnc3Cl)ccc2NC1=O (stereo partly drawn) [Compound 26, (R)-1-(2-chloropyridin-3-yl)ethyl (4-(3-ethyl-2-oxo-2,3-dihydro-1H-pyrido[2,3-b][1,4]oxazin-6-yl)-1-methyl-1H-1,2,3-triazol-5-yl)carbamate]
25 | 765 nM | C[C@@H](OC(=O)Nc1c(-c2cnc3c(c2)OCC(=O)N3)nnn1C)c1cccnc1Cl [Compound 8, (R)-1-(2-chloropyridin-3-yl)ethyl (1-methyl-4-(3-oxo-3,4-dihydro-2H-pyrido[3,2-b][1,4]oxazin-7-yl)-1H-1,2,3-triazol-5-yl)carbamate]
